The values that follow come from patent US20250327029A1, “PROCESS FOR THE OBTENTION OF INVARIANT NATURAL KILLER T CELLS” (Université de Lorraine, priority 2022, published 2025).

The test system of the experiment is CD4^− iNKT cells. Put plainly: Expansion of iNKT cells from PBMC cultured with alpha-GalCer and a cytokine (IL-15 or IL-2). The experiment is classed as cell-based, human. The procedure:
The expansion factor of iNKT cells is more preferably comprised between 100 and 10 000. The “expansion factor” corresponds to the number of iNKT cells obtained at day 14 of expansion divided by the number of iNKT cells put in culture at day 0. The number of cells is determined by routinely used techniques by the skilled person (cell couting and flow cytometry staining to determine the percentage of iNKT cells among total PBMCs).
PBMC obtained by centrifugation of fresh whole blood on density gradient were culture at the concentration of 5.10^5 cells/mL in RPMI 1640 advanced medium (ref: 11530446, Gibco®), with 5% SVF v/v, 4 mM glutamine, 100 ng/mL alpha-galactoside-ceramide (KRN-7000, Funakoshi). Cultures were performed in a cell culture bag in a normoxia incubator at 37° C. and 5% CO2.
On day 1 of culture, 10 ng/mL of IL-15 were added.
On day 7 of culture, 50% of the medium was changed and 10 ng/mL of IL-15 were introduced.
On day 10 of the culture, 50% of the medium was changed and 10 ng/mL of IL-15 were introduced.
On day 14 of the culture, the obtained iNKT cells were sorted by performing a magnetic CD4^+ cell isolation (CD4 MicroBeads kit commercialized by Miltenyi Biotec Inc.), retrieving the negative fraction, performing a magnetic iNKT^+ isolation on said fraction (Anti-iNKT MicroBeads kit commercialized by Miltenyi Biotec Inc.) and retrieving the positive fraction corresponding to the isolated CD4^− iNKT cell population.

“IL-15: human cytokine that stimulates the proliferation of T-lymphocytes; Uniprot P40933”: the “mean % CD4^− iNKT cells±SEM” value (D14 of culture, n=14) was 60.6±5.23%. Further, the “mean expansion factor of CD4^− iNKT cells±SEM” value (cytokine present during expansion phase, n=17, cells at day 14 / cells at day 0) is 652±128. Besides, the “CD4^− iNKT cells among the expanded iNKT cells” value (end of 14-day culture, healthy donor PBMC) came out at 61%. Moreover, the “percentage of iNKT cells at the end of the 14-day culture (% among total T lymphocytes)” value (healthy donor PBMC, 0.82% iNKT at D0) is on record as 81.5%.
